Experiments:
[1] = LNP encapsulation efficiency by Ribogreen assay; assay type: physicochemical; settings: LNP: 47.5% ionizable lipid, 40% cholesterol, 2.5% PEG-2000 DMG, 10% DPSC, N/P 4-8
Description: (§1) LNPs were prepared with 47.5% Ionizable Lipid (e.g., a compound provided herein): 40% cholesterol: 2.5% PEG-2000 DMG; and 10% DPSC and an N/P ratio range of 4-8. LNPs were formed by microfluidic mixing of the lipid and NA solutions using a Precision Nanosystems NanoAssemblr Spark or Benchtop series Instruments, according to the manufacturers protocol. A ratio of aqueous to organic solvent of approximately 2:1 or 3:1 was maintained during mixing using differential flow rates. After mixing, LNPs were collected, diluted in phosphate buffer saline (PBS) or Tris-buffered saline (TBS) (approximately 1:1 v/v). Further buffer exchange was conducted using dialysis in PBS or TBS at 4° C. for 4 to 24 hours against a 20 kDa filter. After this initial dialysis, each individual LNP preparation was characterized via dynamic light scattering (DLS) to measure the size (e.g., diameter) and polydispersity. LNPs falling within specific diameter and polydispersity ranges were pooled, and further dialyzed against PBS or TBS at 4° C. for 1 to 4 hours against a 100 kDa dialysis cassette. After the second dialysis, LNPs were sterile filtered using 0.22 μm filter and stored at 4° C. for further use.
RNA concentration and encapsulation efficiency were determined by Ribogreen assay (BioTek Synergy LX plate reader).

[2] = LNP hydrodynamic diameter and polydispersity index by dynamic light scattering (DLS); assay type: physicochemical; settings: LNP: 47.5% ionizable lipid, 40% cholesterol, 2.5% PEG-2000 DMG, 10% DPSC, N/P 4-8
Description: as §1
LNP hydrodynamic diameter and polydispersity index (PDI) were measured using high throughput dynamic light scattering (DLS) (Stunner, Unchained Labs). LNPs were diluted 1×TBS or PBS to an appropriate concentration and analyzed.

| Structure (SMILES) | Mean Encapsulation Efficiency (%) [1] | Mean Diameter (nm) [2] | Mean PDI [2] |
| --- | --- | --- | --- |
| CCCCC/C=C\CCOC(=O)CCCCCCC(=O)OCC(COC(=O)CCCCCCC(=O)OCC/C=C\CCCCC)(COC(=O)CCCCCCC(=O)OCC/C=C\CCCCC)COC(=O)NCCN1CCCC1 [Compound 7-16, 8,8′-di((Z)-non-3-en-1-yl) O′1,O1-(2-(((8-(((Z)-non-3-en-1-yl)oxy)-8-oxooctanoyl)oxy)methyl)-2-((((2-(pyrrolidin-1-yl)ethyl)carbamoyl)oxy)methyl)propane-1,3-diyl) di(octanedioate)] | 79.9% | 108.5 nm | 0.07 |
| CC/C=C\CCCCOC(=O)CCCCCCC(=O)OCC(COC(=O)CCCCCCC(=O)OCCCC/C=C\CC)(COC(=O)CCCCCCC(=O)OCCCC/C=C\CC)COC(=O)NCCN1CCCC1 [Compound 7-18] | 38.4% | 153.0 nm | 0.08 |
| CCCCC/C=C\CCOC(=O)CCCCCC(=O)OCC(COC(=O)CCCCCC(=O)OCC/C=C\CCCCC)(COC(=O)CC12CC3CC(CC(C3)C1)C2)COC(=O)OCCCN(CC)CC [Compound 7-25, O′1,O1-(2-((2-((3r,5r,7r)-adamantan-1-yl)acetoxy)methyl)-2-((((3-(diethylamino)propoxy)carbonyl)oxy)methyl)propane-1,3-diyl) 7,7′-di((Z)-non-3-en-1-yl) di(heptanedioate)] | 66.9% | 123.1 nm | 0.11 |
| CCCCC/C=C\CCOC(=O)CCCC(=O)OCC(COC(=O)CCCC(=O)OCC/C=C\CCCCC)(COC(=O)CCCC(=O)OCC/C=C\CCCCC)COC(=O)OCCCN(CC)CC [Compound 7-37, O,O′-(2-((((3-(diethylamino)propoxy)carbonyl)oxy)methyl)-2-(((5-(((Z)-non-3-en-1-yl)oxy)-5-oxopentanoyl)oxy)methyl)propane-1,3-diyl) di((Z)-non-3-en-1-yl) diglutarate] | 71.9% | 119.7 nm | 0.11 |
| CCCCC/C=C\CCOC(=O)CCCCCC(=O)OCC(COC(=O)CCCCCC(=O)OCC/C=C\CCCCC)(COC(=O)CCCCCC(=O)OCC/C=C\CCCCC)COC(=O)CCCN1CCCC1 [Compound 7-51, 7,7′-di((Z)-non-3-en-1-yl) O′1,O1-(2-(((7-(((Z)-non-3-en-1-yl)oxy)-7-oxoheptanoyl)oxy)methyl)-2-(((4-(pyrrolidin-1-yl)butanoyl)oxy)methyl)propane-1,3-diyl) di(heptanedioate)] | 77.1% | 126.0 nm | 0.08 |
| CCCCC/C=C\CCOC(=O)CCCCCC(=O)OCC(COC(=O)CCCCCC(=O)OCC/C=C\CCCCC)(COC(=O)CCCN1CCCC1)COC(=O)CC12CC3CC(CC(C3)C1)C2 [Compound 7-53, O′1,O1-(2-((2-(adamantan-1-yl)acetoxy)methyl)-2-(((4-(pyrrolidin-1-yl)butanoyl)oxy)methyl)propane-1,3-diyl) 7,7′-di((Z)-non-3-en-1-yl) di(heptanedioate)] | 43.3% | 157.7 nm | 0.08 |
| CC/C=C\CCCCOC(CCC(=O)OCC(COC(=O)CCCCCOC(=O)C(CCCC)CCCCCC)(COC(=O)CCCCCOC(=O)C(CCCC)CCCCCC)COC(=O)OCCCN(CC)CC)OCCCC/C=C\CC (stereo not drawn) [Compound 7-55] | 87.5% | 80.1 nm | 0.13 |
| CC/C=C\CCCCOC(CCC(=O)OCC(COC(=O)CCCCCCOC(=O)C(CCCC)CCCCCC)(COC(=O)CCCCCCOC(=O)C(CCCC)CCCCCC)COC(=O)OCCCN(CC)CC)OCCCC/C=C\CC (stereo not drawn) [Compound 7-56] | 88.1% | 78.2 nm | 0.11 |
| CC/C=C\CCCCOC(CCC(=O)OCC(COC(=O)CCCCCCCOC(=O)C(CCCC)CCCCCC)(COC(=O)CCCCCCCOC(=O)C(CCCC)CCCCCC)COC(=O)OCCCN(CC)CC)OCCCC/C=C\CC (stereo not drawn) [Compound 7-57] | 88.4% | 81.0 nm | 0.17 |
| CC/C=C\CCCCOC(CCC(=O)OCC(COC(=O)CCCCCOC(=O)C(CCCC)CCCCCC)(COC(=O)CCCCCOC(=O)C(CCCC)CCCCCC)COC(=O)OCC1CCCN(CC)C1)OCCCC/C=C\CC (stereo not drawn) [Compound 7-58, ((2-(((4,4-bis(((Z)-oct-5-en-1-yl)oxy)butanoyl)oxy)methyl)-2-(((((1-ethylpiperidin-3-yl)methoxy)carbonyl)oxy)methyl)propane-1,3-diyl)bis(oxy))bis(6-oxohexane-6,1-diyl) bis(2-butyloctanoate)] | 90.1% | 77.7 nm | 0.15 |
| CC/C=C\CCCCOC(CCC(=O)OCC(COC(=O)CCCCCCOC(=O)C(CCCC)CCCCCC)(COC(=O)CCCCCCOC(=O)C(CCCC)CCCCCC)COC(=O)OCC1CCCN(CC)C1)OCCCC/C=C\CC (stereo not drawn) [Compound 7-59, ((2-(((4,4-bis(((Z)-oct-5-en-1-yl)oxy)butanoyl)oxy)methyl)-2-(((((1-ethylpiperidin-3-yl)methoxy)carbonyl)oxy)methyl)propane-1,3-diyl)bis(oxy))bis(7-oxoheptane-7,1-diyl) bis(2-butyloctanoate)] | 86.7% | 82.4 nm | 0.15 |
| CC/C=C\CCCCOC(CCC(=O)OCC(COC(=O)CCCCCCCOC(=O)C(CCCC)CCCCCC)(COC(=O)CCCCCCCOC(=O)C(CCCC)CCCCCC)COC(=O)OCC1CCCN(CC)C1)OCCCC/C=C\CC (stereo not drawn) [Compound 7-60, 2-(((4,4-bis(((Z)-oct-5-en-1-yl)oxy)butanoyl)oxy)methyl)-2-(((((1-ethylpiperidin-3-yl)methoxy)carbonyl)oxy)methyl)propane-1,3-diyl bis(8-((2-butyloctanoyl)oxy)octanoate)] | 84.6% | 86.6 nm | 0.14 |
| CC/C=C\CCCCOC(CCC(=O)OCC(COC(=O)CCCCCOC(=O)C(CCCC)CCCCCC)(COC(=O)CCCCCOC(=O)C(CCCC)CCCCCC)COC(=O)OCCCN(C)CC)OCCCC/C=C\CC (stereo not drawn) [Compound 7-61] | 88.9% | 76.1 nm | 0.17 |
| CC/C=C\CCCCOC(CCC(=O)OCC(COC(=O)CCCCCCOC(=O)C(CCCC)CCCCCC)(COC(=O)CCCCCCOC(=O)C(CCCC)CCCCCC)COC(=O)OCCCN(C)CC)OCCCC/C=C\CC (stereo not drawn) [Compound 7-62] | 88.6% | 80.2 nm | 0.14 |
| CC/C=C\CCCCOC(CCC(=O)OCC(COC(=O)CCCCCCCOC(=O)C(CCCC)CCCCCC)(COC(=O)CCCCCCCOC(=O)C(CCCC)CCCCCC)COC(=O)OCCCN(C)CC)OCCCC/C=C\CC (stereo not drawn) [Compound 7-63] | 87.8% | 79.6 nm | 0.14 |
